Results from patent US20240148723A1, “MYCOBACTERIUM TUBERCULOSIS COMPOSITIONS AND METHODS” (priority 2021, published 2024).
≈ marks a conversion by molar mass, not a printed value.

These compounds were tested on M. tuberculosis. Conditions: pH 6.8.
Assay type: cell-based, Mycobacterium tuberculosis

Structure (SMILES)	MIC in the media 7H9 [µg/mL]	MIC in the media L-Ala [µg/mL]	MIC in the media SBA [µg/mL]	MIC in the media SLac [µg/mL]
CCN(CC)CCOc1ccc(C(=C(Cl)c2ccccc2)c2ccccc2)cc1.O=C(O)CC(O)(CC(=O)O)C(=O)O (mixture of isomers) [compound 35770]	≥ 14.95	1.91	1.91	0.96
N#CC(c1ccccc1)C(CC(=NO)c1ccccc1)c1ccccc1 (mixture of isomers) [compound 186200]	≥ 136.16	17.02	34.04	2.13
COC(=O)c1cccc([N+](=O)[O-])c1 [compound 1327]	≥ 72.48	9.06 (≈ 50 µM)	4.53 (≈ 25 µM)	2.27 (≈ 12.5 µM)
NC(=O)c1ccc([N+](=O)[O-])cc1 [compound 2902]	≥ 66.44	16.61 (≈ 100 µM)	33.22 (≈ 200 µM)	8.31 (≈ 50 µM)
CC(C)c1ccc2c(c1)CCC1C(C)(C(=O)O)CCCC21C (stereo not shown) [compound 2952]	≥ 30.04	3.76 (≈ 12.5 µM)	7.51 (≈ 25 µM)	1.88 (≈ 6.26 µM)
O=Nc1ccc(O)c2ncccc12 [compound 3852]	≥ 4.36	2.18 (≈ 12.5 µM)	2.18 (≈ 12.5 µM)	1.09 (≈ 6.26 µM)
Oc1c(Cl)cc(Cl)c2cccnc12 [compound 3904]	≥ 4	0.03 (≈ 0.14 µM)	0.03 (≈ 0.14 µM)	0.03 (≈ 0.14 µM)
CCOC(=O)c1ccc([N+](=O)[O-])cc1 [compound 6763]	≥ 78.08	9.76 (≈ 50 µM)	4.88 (≈ 25 µM)	4.88 (≈ 25 µM)
COC(=O)c1cc([N+](=O)[O-])cc([N+](=O)[O-])c1 [compound 7317]	≥ 90.44	11.31 (≈ 50 µM)	5.65 (≈ 25 µM)	5.65 (≈ 25 µM)
CCC(C)(C)c1ccc(Oc2cccc(C(=O)O)c2)cc1 [compound 7962]	≥ 28.43	3.55 (≈ 12.5 µM)	3.55 (≈ 12.5 µM)	0.45 (≈ 1.58 µM)
CN(C)c1ccc(N=Nc2ccccn2)cc1 [compound 9358]	≥ 22.63	5.66 (≈ 25 µM)	1.41 (≈ 6.23 µM)	1.41 (≈ 6.23 µM)
N=C(N)c1ccc(OCCCCCOc2ccc(C(=N)N)cc2)cc1 [compound 9921]	≥ 8.51	2.13 (≈ 6.26 µM)	4.26 (≈ 12.5 µM)	1.09 (≈ 3.2 µM)
Oc1ccc(Cc2ccccc2Cl)c(O)c1 [compound 11149]	≥ 23.47	5.87 (≈ 25 µM)	2.93 (≈ 12.5 µM)	1.47 (≈ 6.26 µM)
Oc1ccc(Cc2ccc(Cl)cc2)c(O)c1 [compound 11150]	≥ 23.47	5.87 (≈ 25 µM)	2.93 (≈ 12.5 µM)	1.47 (≈ 6.26 µM)
COc1ccc2nc3cc(Cl)ccc3c(Nc3cc(C(C)C)c(O)cc3C)c2c1 [compound 13051]	≥ 20.35	2.54 (≈ 6.24 µM)	2.54 (≈ 6.24 µM)	1.30 (≈ 3.19 µM)
NC(=O)c1cccnc1 [compound 13128]	≥ 800	400 (≈ 3280 µM)	400 (≈ 3280 µM)	400 (≈ 3280 µM)

Structure (SMILES)	MIC in the media 7H9 [µg/mL]	MIC in the media L-Ala [µg/mL]	MIC in the media SBA [µg/mL]	MIC in the media SLac [µg/mL]
COc1cc(N)c2ncccc2c1 [compound 13573]	≥ 8.71	8.71 (≈ 50 µM)	8.71 (≈ 50 µM)	17.42 (≈ 100 µM)
NC(=O)c1cnccn1 [compound 14911]	≥ 800	200 (≈ 1620 µM)	100 (≈ 812 µM)	200 (≈ 1620 µM)
CCCOC(=O)c1ccc(N)cc1 [compound 23516]	≥ 800	0.12 (≈ 0.67 µM)	0.25 (≈ 1.39 µM)	0.25 (≈ 1.39 µM)
CN(C)CCCN1c2ccc3ccccc3c2Sc2cccc(Cl)c21 [compound 24113]	≥ 9.22	2.31 (≈ 6.26 µM)	2.31 (≈ 6.26 µM)	1.18 (≈ 3.2 µM)
CCOc1ccc(Nc2c3ccccc3nc3ccccc23)cc1 [compound 30205]	≥ 1.97	1.97 (≈ 6.27 µM)	3.93 (≈ 12.5 µM)	1.97 (≈ 6.27 µM)
COC(=O)c1ccc(N)cc1O [compound 30263]	≥ 4.18	1.05 (≈ 6.28 µM)	4.18 (≈ 25 µM)	1.05 (≈ 6.28 µM)
CCCCCc1cc(O)cc2c1Oc1cc(O)cc(C(=O)CCCC)c1C(=O)O2 [compound 31867]	≥ 39.84	4.98 (≈ 12.5 µM)	2.49 (≈ 6.25 µM)	0.64 (≈ 1.61 µM)
CCOC(=O)c1cccc([N+](=O)[O-])c1 [compound 32740]	≥ 78.08	2.44 (≈ 12.5 µM)	4.88 (≈ 25 µM)	2.44 (≈ 12.5 µM)
O=C1CC(c2ccc(O)cc2)Oc2cc(O)cc(O)c21 (stereo not shown) [compound 34875]	≥ 27.23	6.81 (≈ 25 µM)	6.81 (≈ 25 µM)	1.70 (≈ 6.24 µM)
C=C1C(=O)OC2CC1C(OC(C)=O)C/C(C)=C/CC/C(C)=C\CCC2(C)O (stereo not shown) [compound 36437]	≥ 37.65	9.41 (≈ 25 µM)	4.71 (≈ 12.5 µM)	2.35 (≈ 6.24 µM)
O=c1c(-c2ccc(O)cc2)coc2cc(O)cc(O)c12 [compound 36586]	≥ 108.10	13.51 (≈ 50 µM)	13.51 (≈ 50 µM)	1.69 (≈ 6.25 µM)
NC(=O)c1cccc(N)c1 [compound 36962]	≥ 54.48	13.62 (≈ 100 µM)	13.62 (≈ 100 µM)	13.62 (≈ 100 µM)
NC(=O)c1ccc(N)cc1 [compound 36963]	≥ 54.48	6.81 (≈ 50 µM)	13.62 (≈ 100 µM)	3.41 (≈ 25 µM)
NC(=O)c1cccc([N+](=O)[O-])c1 [compound 37327]	≥ 66.44	66.44 (≈ 400 µM)	33.22 (≈ 200 µM)	66.44 (≈ 400 µM)
C=CCOc1c(CCC)cc(CCC)cc1C(N)=O [compound 37955]	≥ 26.14	13.07 (≈ 50 µM)	13.07 (≈ 50 µM)	3.27 (≈ 12.5 µM)
